Reference: patent US11446391B2, “Amphiphilic dye-coated inorganic nanoparticle clusters” (THE TRUSTEES OF THE UNIVERSITY OF PENNSYLVANIA, priority 2017, dated 2022)

How the values were obtained:
GBM = GBM patients, PDT; cited from earlier work
[1] = Vials of free Ce6 or Ce6 nanoclusters in water; assay type: physicochemical; conditions: equal concentrations of Ce6
Procedure: FIG. 43 is a photograph of vials containing solution with free Ce6 or Ce6 nanoclusters in water (at equal concentrations of Ce6).
The size distribution of Ce6 nanoclusters was measured by dynamic light scattering (DLS) in water at 25° C. (FIG. 39). The amphiphilic Ce6 molecules solubilized the PCL, creating stable nanoclusters with an average hydrodynamic diameter of 58±4 nm and an average polydispersity index (PDI) of <0.2. Fluorescence detection takes place when Ce6 is excited at around 404 nm, which then emits a characteristic reference fluorescence peak at approximately 650 nm (FIG. 40).

[2] = Ce6 at 667 nm, PpIX at 631 nm; in M-1cm-1 (unit assumed); cited from earlier work
[3] = Absorbance spectrum in water (solubility); assay type: physicochemical
Procedure: FIGS. 22A-22D. (FIG. 22A) Illustration of Ce6-coated SPION nanoclusters (Ce6-SCs). Iron oxide nanoparticles are stabilized in aqueous media by the self-assembly of amphiphilic PS Chlorin e6 on the surface using a microemulsion. (FIG. 22B) Dynamic light scattering (DLS) of Ce6-SCs in water. […] (FIG. 22C) Particle size and T2 relaxation time was monitored for 6 days in water at 25° C. (FIG. 22D) Magnetic resonance (MR) relaxometry measurements of Ce6-SCs. Inset: T2-weighted image of Ce6-SCs at various concentrations in a microplate. (FIG. 22E) Absorbance spectra of Ce6-SCs (black) and free Ce6 (brown) in water. The inset images are vials containing solutions of Ce6-SCs and free Ce6 in water.
Relaxometry measurements indicated an average r2 value of 301±4 mM^−1 s^−1 and MR images of a phantom confirmed strong T2 contrast relative to water (FIG. 22D).

behaviour in water [1] | solubility in water judged from absorbance spectrum (peak at ~665 nm) [3] | Molecule | adverse events (GBM) | overall survival (GBM) | peak extinction coefficient [2]
– | – | C=Cc1c(C)c2cc3nc(c(CC(=O)N[C@@H](CC(=O)O)C(=O)O)c4[nH]c(cc5nc(cc1[nH]2)C(C)=C5CC)c(C)c4C(=O)O)[C@@H](CCC(=O)O)[C@@H]3C [talaporfin, mono-L-aspartyl chlorin e6] | only mild adverse events | 24.8 months | –
aggregate and precipitate in water | poor solubility | Chlorin e6 [Ce6] | – | – | 55,000
